# In US20250236617A1, “BICYCLIC TETRAHYDROTHIAZEPINE DERIVATIVES” (Hoffmann-La Roche Inc., priority 2022, published 2025):
# Experiments:
# [1] = test system: primary human T-cells; test: IL2 secretion measurements in CD3-stimulated T-cells; assay type: cell-based; settings: CD3 condition; for Emax IL2 (% activation): 24 hours, 20 μM reference compound A1 = 100%; for EC50: Homo sapiens, T-cell, IL2 secretion after 24 hours, read-out: Tcell IL2 CD3 EC50
# Summary of the method: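 Expanded primary human T-cells (100 k/well, RPMI + 5% human serum) on plate-bound anti-CD3 (donor-titrated) or PBS counter-screen wells, 5–6 pt dose response from 20 or 10 μM top (dilution factor 3.333), 0.2% DMSO final. IL-2 in 24 h supernatant by ProQuantum immunoassay or ELISA. Normalised to DMSO (0%) and 20 μM reference A1 (100%); EC50 and Emax from sigmoidal fit.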
# [2] = test system: MV-3 RFP cells; test: T-cell-TCB-MV3 killing assay; assay type: cell-based; settings: MV-3, 120 h, primary human T-cells + MCSP-TCB, 5 d; for Emax: 20 μM reference compound A1 = 100%, read-out: MSCP TCB killing MV-3 cells 5 d Emax; for EC50: read-out: MSCP TCB killing MV-3 cells 5 d EC50
# Description: All culturing steps are executed at 5% CO2, 37° C. and 95% humidity.
# MV-3 RFP cells are cultured in MV-3 medium (DMEM+10% FBS, 1× PenStrep and 0.5 μg/mL Puromycin) for at least 3 weeks. Cultured MV-3 cells at 80% confluency are washed once with PBS−− and trypsinized until detached. […] Cells are seeded with 100 μL/well into a 96-well plate (TTP, #92696), and placed for 40 minutes without moving at room temperature in order to achieve evenly distributed attachment of cells. Plates are then incubated until further use.
# On the next day, expanded primary human T-cells are thawed and resuspended in T-cell medium to 4*10^6 cells/mL. For 3 hours, they are cultured in a 6-well plate with 6 mL per well at maximum. After culturing the T-cells, they are filtered through a cell strainer (Miltenyi Biotech, #130-041-407), counted again, and cell concentration is adjusted to 2*10^6 cells/mL.
# MCSP-TCB or PBS are pre-diluted in T-cell medium (concentration depending on T-cell donor), 4 times more concentrated than the end-concentration. 60 μL/well of pre-dilutions are then distributed into a round bottom plate (Costar, #3799) according to plate layout. Compounds are added in a 9 pt dose response with the Tecan D300e Digital Dispenser, as well 4 times more concentrated than the end-concentration. DMSO concentration of all wells is adjusted to 0.8%, resulting in 0.2% as final concentration.
# 60 μL per well of T-cell suspension are added to the prepared round bottom plate and resuspended with a manual multichannel. 100 μL/well of the resuspended T-cell suspension including treatments are then transferred cautiously to the over-night cultured MV-3 cells according to plate layout. 100 μL T-cell medium only is added to the outer MV-3 wells only. Final compound DR is starting at 20 μM with a dilution factor of 3.333. Final TCB concentration is between […] and was determined for each T-cell donor individually by running TCB titrations. For each donor, a TCB concentration was chosen which corresponds to 10-20% of MV3 baseline cell killing in the absence of compound treatment. Positive control is the reference compound A1 which is added in a DR, as well as additional wells with only 20 μM. 20 μM of reference compound A1 represent the positive stimulator control, TCB only (DMSO wells) the neutral control.
# After transfer of T-cells with treatment pre-dilutions, MV-3 cells are imaged by time-lapse microscopy using IncucyteZOOM™ (Essen BioScience, MI, USA). Imaging is performed every 3 hours for a total of 120 hours (10× objective, phase and red image channels, acquisition time 400 ms, Green/Red 4614 optical module). RFP object count per well is analysed in the IncucyteZOOM™ Software (Version 2019B Rev2) with a mask that was previously created and optimized for MV-3 cells. Raw data is exported as object count/well and values are normalized as % TCL compared to wells with MV-3 only, representing 100% growth and therefore 0% TCL.
# Calculated % TCL values are analysed in Genedata Screener using Roche Normalization PCT_POS_CTRL with MCSP-TCB only set as Neutral Control and 20 μM of the reference compound A1 set as Stimulator Control/100%.
Structure (SMILES),EC50 [1] [µM],Emax IL2 (% activation) [1] [% activation],Emax [2] [%],EC50 [2] [µM]
"CC(C)(C)c1cnnc(-c2cc3c(cc2F)S(=O)(=O)C[C@H](N)C(=O)N3Cc2ccc(Cl)cc2)n1 [Example 11, (3R)-3-amino-7-(5-tert-butyl-1,2,4-triazin-3-yl)-5-[(4-chlorophenyl)methyl]-8-fluoro-1,1-dioxo-2,3-dihydro-1λ6,5-benzothiazepin-4-one]",0.119,79,118,0.134
"CC(C)(C#N)c1cncc(-c2cc3c(cc2F)S(=O)(=O)C[C@H](N)C(=O)N3Cc2ccc(-c3noc(C(F)(F)F)n3)cc2)c1 [Example 23, 2-[5-[(3R)-3-amino-8-fluoro-1,1,4-triketo-5-[4-[5-(trifluoromethyl)-1,2,4-oxadiazol-3-yl]benzyl]-2,3-dihydro-1λ6,5-benzothiazepin-7-yl]-3-pyridyl]-2-methyl-propionitrile]",3.54,213,–,–

# The remaining compounds from weak to strong by EC50 [1], led by results:
EC50 [1] [µM],Structure (SMILES),Emax IL2 (% activation) [1] [% activation],Emax [2] [%],EC50 [2] [µM]
4.52,"CC(C)(c1cncc(-c2cc3c(cc2F)S(=O)(=O)C[C@H](N)C(=O)N3Cc2ccc(-c3noc(C(F)(F)F)n3)cc2)c1)S(C)(=O)=O [Example 25, (3R)-3-amino-8-fluoro-1,1-diketo-7-[5-(1-mesyl-1-methyl-ethyl)-3-pyridyl]-5-[4-[5-(trifluoromethyl)-1,2,4-oxadiazol-3-yl]benzyl]-2,3-dihydro-1λ6,5-benzothiazepin-4-one]",168,86,0.841
0.763,"COc1ccc(-c2ccc(CN3C(=O)[C@@H](N)CS(=O)(=O)c4cc(F)c(-c5cnc(C)c(C)c5)cc43)cc2)cc1 [Example 28, (3R)-3-amino-7-(5,6-dimethyl-3-pyridyl)-8-fluoro-5-[[4-(4-methoxyphenyl)phenyl]methyl]-1,1-dioxo-2,3-dihydro-1λ6,5-benzothiazepin-4-one]",237,89,0.069
0.459,"CC(C)(C)c1cncc(-c2cc3c(cc2F)S(=O)(=O)C[C@H](N)C(=O)N3Cc2ccc(Cl)cc2)c1 [Example 2, (3R)-3-amino-7-(5-tert-butyl-3-pyridyl)-5-[(4-chlorophenyl)methyl]-8-fluoro-1,1-dioxo-2,3-dihydro-1λ6,5-benzothiazepin-4-one]",109,85,0.078
